Results published in ChEMBL document CHEMBL5321270, “Discovery of Pyrazolone Carbothioamide Derivatives as Inhibitors of the Pdr1-KIX Interaction for Combinational Treatment of Azole-Resistant Candidiasis” (J Med Chem, 2023).
Values after ≈ are worked out from the molar mass of the structure shown. Active and inactive are the calls of the source. The calls are words filed in the database; no cut-off is given here.

Assays:
[1] = Inhibition of fluorescent probe FITC tagged PDR1-KIX domain (unknown origin) protein-protein interaction assessed as inhibition constant incubated for 2 hrs by fluorescence polarization binding assay
Nakaseomyces glabratus [2] = assay: Antifungal activity against fluconazole-resistant Candida glabrata 0161 assessed as fungal growth inhibition incubated for 48 hrs by microplate reader assay; assay type: functional
Nakaseomyces glabratus [3] = assay: Antifungal activity against fluconazole-resistant Candida glabrata 0161 assessed as fractional inhibitory concentration incubated for 48 hrs in presence of fluconazole by microplate reader assay; assay type: functional
Nakaseomyces glabratus [4] = assay: Antifungal activity against fluconazole-resistant Candida glabrata 0161 assessed as fluconazole fractional inhibitory concentration incubated for 48 hrs in presence of fluconazole by microplate reader assay; assay type: functional
Nakaseomyces glabratus [5] = assay: Synergistic antifungal activity against fluconazole-resistant Candida glabrata 0161 assessed as fractional inhibitory concentration index incubated for 48 hrs in presence of fluconazole by checkerboard microdilution method; assay type: functional
Nakaseomyces glabratus [6] = assay: Antifungal activity against fluconazole-resistant Candida glabrata 9256 assessed as fungal growth inhibition incubated for 48 hrs by microplate reader assay; assay type: functional
Nakaseomyces glabratus [7] = assay: Antifungal activity against fluconazole-resistant Candida glabrata 8535 assessed as fungal growth inhibition incubated for 48 hrs by microplate reader assay; assay type: functional
Candida albicans [8] = assay: Antifungal activity against Candida albicans assessed as fungal growth inhibition incubated for 48 hrs by microplate reader assay; assay type: functional
Candida tropicalis = assay: Antifungal activity against Candida tropicalis 10186 assessed as fungal growth inhibition incubated for 48 hrs by microplate reader assay; assay type: functional
Candida parapsilosis = assay: Antifungal activity against Candida parapsilosis 20090 assessed as fungal growth inhibition incubated for 48 hrs by microplate reader assay; assay type: functional; settings: Lodderomyces parapsilosis
[Candida] auris [9] = Antifungal activity against Candida auris 0030 assessed as fungal growth inhibition incubated for 48 hrs by microplate reader assay; assay type: functional; settings: Candidozyma auris
[Candida] auris [10] = Antifungal activity against Candida auris 15448 assessed as fungal growth inhibition incubated for 48 hrs by microplate reader assay; assay type: functional; settings: Candidozyma auris
Aspergillus fumigatus = assay: Antifungal activity against Aspergillus fumigatus 7544 assessed as fungal growth inhibition incubated for 48 hrs by microplate reader assay; assay type: functional
Nannizzia gypsea = assay: Antifungal activity against Microsporum gypseum assessed as fungal growth inhibition incubated for 48 hrs by microplate reader assay; assay type: functional
Trichophyton rubrum = assay: Antifungal activity against Trichophyton rubrum assessed as fungal growth inhibition incubated for 48 hrs by microplate reader assay; assay type: functional
Cryptococcus neoformans = assay: Antifungal activity against Cryptococcus neoformans H99 assessed as fungal growth inhibition incubated for 48 hrs by microplate reader assay; assay type: functional
Nakaseomyces glabratus [11] = assay: Antifungal activity against fluconazole-sensitive Candida glabrata 7669 assessed as fungal growth inhibition incubated for 48 hrs by microplate reader assay; assay type: functional, organism-based
Candida albicans [12] = assay: Antifungal activity against Candida albicans 103 assessed as fungal growth inhibition incubated for 48 hrs by microplate reader assay; assay type: functional, organism-based
Candida albicans [13] = assay: Antifungal activity against Candida albicans 5314 assessed as fungal growth inhibition incubated for 48 hrs by microplate reader assay; assay type: functional, organism-based
Candida albicans [14] = assay: Antifungal activity against Candida albicans 0029 assessed as fungal growth inhibition incubated for 48 hrs by microplate reader assay; assay type: functional, organism-based

SMILES	Ki [1] [µM]	MIC (Nakaseomyces glabratus [2]) [µg/mL]	FIC (Nakaseomyces glabratus [3]) [µg/mL]	fluconazole MIC in combination (Nakaseomyces glabratus [4]) [µg/mL]	fractional inhibitory concentration index (FICI) (Nakaseomyces glabratus [5])	Activity (Nakaseomyces glabratus [11])	Activity (Nakaseomyces glabratus [6])	Activity (Nakaseomyces glabratus [7])	Activity (Candida albicans [12])	Activity (Candida albicans [13])	Activity (Candida albicans [14])	other results
Nc1cc(=O)n(C(=S)Nc2cccc(Cl)c2Cl)[nH]1	27.2	0.25 (≈ 0.825 µM)	0.063	2	0.31							MIC (Nakaseomyces glabratus [6]): 0.25 µg/mL (≈ 0.825 µM); MIC (Nakaseomyces glabratus [7]): 0.25 µg/mL (≈ 0.825 µM); MIC (Candida albicans [8]): 4 µg/mL (≈ 13.2 µM); MIC (Candida tropicalis): 4 µg/mL (≈ 13.2 µM); MIC (Candida parapsilosis): 4 µg/mL (≈ 13.2 µM); MIC ([Candida] auris [9]): 2 µg/mL (≈ 6.6 µM); MIC ([Candida] auris [10]): 2 µg/mL (≈ 6.6 µM); MIC (Aspergillus fumigatus): 16 µg/mL (≈ 52.8 µM); MIC (Nannizzia gypsea): 1 µg/mL (≈ 3.3 µM); MIC (Trichophyton rubrum): 1 µg/mL (≈ 3.3 µM); MIC (Cryptococcus neoformans): 0.063 µg/mL (≈ 0.208 µM)
N#CCC(=O)NNC(=S)Nc1ccc(Cl)cc1Cl	37.3	16 (≈ 52.8 µM)	8	2	0.56	inactive	inactive	inactive	inactive	inactive	inactive	
N#CCC(=O)NNC(=S)Nc1ccc2[nH]ccc2c1	470	> 64	2	16	0.53	inactive	inactive	inactive	inactive	inactive	inactive	
N#CCC(=O)NNC(=O)Nc1cccc(Cl)c1	119	> 64	2	16	0.53	inactive	inactive	inactive	inactive	inactive	inactive	
Nc1cc(=O)n(C(=S)Nc2ccc(I)cc2)[nH]1	137	0.25 (≈ 0.694 µM)	0.13	0.25	0.53							MIC (Nakaseomyces glabratus [6]): 0.25 µg/mL (≈ 0.694 µM); MIC (Nakaseomyces glabratus [7]): 0.25 µg/mL (≈ 0.694 µM); MIC (Candida albicans [8]): 4 µg/mL (≈ 11.1 µM); MIC (Candida tropicalis): 4 µg/mL (≈ 11.1 µM); MIC (Candida parapsilosis): 4 µg/mL (≈ 11.1 µM); MIC ([Candida] auris [9]): 2 µg/mL (≈ 5.55 µM); MIC ([Candida] auris [10]): 2 µg/mL (≈ 5.55 µM); MIC (Aspergillus fumigatus): 16 µg/mL (≈ 44.4 µM); MIC (Nannizzia gypsea): 1 µg/mL (≈ 2.78 µM); MIC (Trichophyton rubrum): 1 µg/mL (≈ 2.78 µM); MIC (Cryptococcus neoformans): 0.063 µg/mL (≈ 0.175 µM)
N#CCC(=O)NNC(=S)Nc1ccc(Cl)cc1	139	64 (≈ 238 µM)	2	16	0.53	inactive	inactive	inactive	inactive	inactive	inactive	
N#CCC(=O)NNC(=S)Nc1ccc(Cl)nc1	54.9	32 (≈ 119 µM)	4	8	0.38	inactive	inactive	inactive	inactive	inactive	inactive	
N#CCC(=O)NNC(=S)Nc1ccccc1Cl	175	32 (≈ 119 µM)	16	2	0.56	inactive	inactive	inactive	inactive	inactive	inactive	
Cc1ccc(NC(=S)NNC(=O)CC#N)cc1	476	64 (≈ 258 µM)	2	16	0.53	inactive	inactive	inactive	inactive	inactive	inactive	
